Laboratory results reported in patent US20030187261A1, “Purine derivatives, process for their preparation and use thereof” (priority 2000, published 2003).
Like-named read-outs stand apart in the source and are kept apart here.

Experiments:
CDC2 = target: T1, CDC2 (Homo sapiens, UniProt P06493); experiment: p34cdc2 (CDC2) kinase inhibition assay, histone H1 substrate; format: biochemical
T1 construct: made in house; host or cells: Sf9 insect cells, baculovirus co-infection

B16 melanoma = experiment: MTT cytotoxicity assay, B16; format: cell-based, mouse; details: 72 hours (TCS50 in the method)
Excerpt: (§1) One of the parameters used as the basis for colorimetric assays is the metabolic activity of viable cells. For example, a microtiter assay, which uses the tetrazolium salt MTT, is now widely used to quantitate cell proliferation and cytotoxicity. For instance, this assay is used in drug screening programs and in chemosensitivity testing. Because only metabolically active cells cleave tetrazolium salts, these assays detect viable cells exclusively. In the case of MTT assay, yellow soluble tetrazolium salt is reduced to coloured water-insoluble formazan salt. After it is solubilized, the formazan formed can easily and rapidly be quantified in a conventional ELISA plate reader at 570 nm (maximum absorbance). The quantity of reduced formazan corresponds to number of vital cells in the culture. Human T-lymphoblastic leukemia cell line CEM; promyelocytic HL-60 and monocytic U937 leukemias; breast carcinoma cell lines MCF-7, BT549, MDA-MB-231; glioblastoma U87MG cells; cervical carcinoma cells HELA; sarcoma cells U20S and Saos2; hepatocellular carcinoma HepG2; mouse immortalized bone marrow macrophages B2.4 and B10A.4; P388D1 and L1210 leukemia; B16 and B16F10 melanomas were used for routine screening of the compounds according to the invention. The cells were maintained in Nunc/Corning 80 cm^2 plastic tissue culture flasks and cultured in cell culture medium (DMEM with 5 g/l glucose, 2 mM glutamine, 100 U/ml penicillin, 100 μg/ml streptomycin, 10% fetal calf serum and sodium bicarbonate).
(§2) The cell suspensions that were prepared and diluted according to the particular cell type and the, expected target cell density (2500-30000 cells per well based on cell growth characteristics) were added by pipette (80 μl) into 96-well microtiter plates. Inoculates were allowed a pre-incubation period of 24 hours at 37° C. and 5% CO2 for stabilisation. Four-fold dilutions of the intended test concentration were added at time zero in 20 μl aliquots to the microtiter plate wells. Usually, test compound was evaluated at six 4-fold dilutions. In routine testing, the highest well concentration was 266.7 μM, but it can be the matter of change dependent on the agent. All drug concentrations were examined in duplicates. Incubations of cells with the test compounds lasted for 72 hours at 37° C., in 5% CO2 atmosphere and 100% humidity. At the end of incubation period, the cells were assayed by using the MTT. Ten microliters of the MTT stock solution were pipetted into each well and incubated further for 1-4 hours. After this incubation period, formazan was solubilized by addition of 100 μl/well of 10% SDS in water (pH=5.5) followed by further incubation at 37° C. overnight. The optical density (OD) was measured at 540 nm with the Labsystem iEMS Reader MF (UK). The tumour cell survival (TCS) was calculated using the following equation: TCS=(ODdrug exposed well/mean ODcontrol wells)×100%. The TCS50 value, the drug concentration lethal to 50% of the tumour cells, was calculated from the obtained dose response curves.
(§3) The cytoxicity of novel compounds was tested on panel of cell lines of different histogenetic and species origin (Table 7). Equal activities were found in all tumour cell lines tested. […] Importantly, this observation distinguishes the purine derivatives of the invention from flavopiridol and related compounds, as their biological activity is dependent on p53 status.

[1] = test system: T-lymphoblastic leukemia cell line CEM; experiment: MTT cytotoxicity assay, CEM; format: cell-based, human; details: 72 hours (TCS50 in the method)
Excerpt: as §1, §2, §3

[2] = test system: myeloid leukemia KG1 cell line; experiment: cell growth of KG1 cell line, flow cytometric cell count; details: read-out: KGI IC50
Description: To determine reversibility of the effects of the new compounds, cells were plated at 10,000 per well and exposed to 0-50 μM of the composed, either continuously for 7 days (control) or only for 6 hours. In the latter case, cells were washed after 6 hours in phosphate-buffered-saline (PBS) (Life Technologies) and reseeded into drug-free medium for 7 days.

[3] = test system: T-lymphocyte leukemia Molt3 cell line; experiment: cell growth of Molt3 cell line, flow cytometric cell count; format: cell-based, human; details: 96 hours of culture
Description: Cell lines: Human leukemic cell lines were obtained from the American Type Culture Collection (ATCC, Rockville, Md., USA). They were cultured in Iscove's Modified Dulbecco's Medium (IMDM) supplemented with 10% heat inactivated fetal calf serum (FCS), 200 U/ml penicillin, 200 μg/ml streptomycin and 1 μg/ml amphotericin B. Cells were cultured in a 5% CO2-95% air fully humidified incubator. For effects on clonogenic output, 1000 cells/well were plated in duplicate in methylcellulose (0.9%), supplemented with 20% FCS and cultured for 14 days.
(§4) Cells were plated at 10000 per well in 200 μl IMDM medium and incubated with 0-50 μM of the compounds of the invention (Table 5), by addition of the drugs directly to the culture medium and incubated at 37° C. for 96 hours. Absolute cell number was determined by addition of a known concentration of Fluoresbrite microspheres (FITC) (Polysciences, Inc.). The absolute number of cells per well was calculated as: {(total number of beads added per well)/(number of beads measured)}×(number of measured cells in the gate of interest). All analyses were performed with a FACScan (BD), using CELLQuest software (Becton Dickinson).
The response of the myeloid leukemia KG1 and T-lymphocyte leukemia Molt3 cell lines to the cytostatic effect of the novel compounds was determined using the above-mentioned standardized bead suspension that was used to determine the absolute cell number by flow cytometric (FCM) measurement. Cells were grown in the presence of increasing concentrations of the compounds of the invention.

[4] = test system: PHA-stimulated lymphocytes (PBMC); experiment: cell number of PHA-stimulated lymphocytes (PBMC), flow cytometry; format: cell-based, human; details: 96 hours, in the presence of IL-2; for CC50: Homo sapiens, Lymphocyte, read-out: Lymphocytes IC50
Description: Human peripheral blood mononuclear cells were isolated by density gradient (Ficoll-Hypaque) (LSM, ICN Biomedicals Inc.). PBMC were stimulated with 5 μg/ml phytohemaglutinin A (PHA) (Sigma) during 24-48 hours in IMDM supplemented with 10% FCS (IMDM/10% FCS) at 37° C. After washing off the PHA, PBMC were incubated with interleukin-2 (IL-2) (10 U/ml) (Genzyme).
as §4
The novel compounds were tested for cytotoxicity on PHA-stimulated lymphocytes (PBMC), as one of the normal counterparts of the cell lines. Cells were grown for 96 hours in the presence of IL-2 and different concentrations of the novel compounds and cell number was counted on the flow cytometer.

normal human lymphocytes = experiment: concanavalin A induced lymphocyte proliferation, [3H]-TdR incorporation; format: cell-based; details: 72 hours, read-out: ED50 (the source's name)
Description: Human heparinized peripheral blood was obtained from healthy volunteers by cubital vein punction. The blood was diluted in PBS (1:3) and mononuclear cells were separated by centrifugation in Ficoll-Hypaque density gradient (Pharmacia, 1.077 g/ml) at 2200 rpm for 30 minutes. Following centrifugation, lymphocytes were washed in PBS and resuspended in cell culture medium (RMPI 1640, 2 mM glutamine, 100 U/ml penicillin, 100 μg/ml streptomycin, 10% fetal calf serum and sodium bicarbonate).
The cells were diluted at target density of 1100000 cells/ml and were added by pipette (180 μl) into 96/well microtiter plates. Four-fold dilutions of the intended test concentration were added at time zero in 20 μl aliquots to the microtiter plate wells. Usually, test compound was evaluated at six 4-fold dilutions. In routine testing, the highest well concentration was 266.7 μM. All drug concentrations were examined in duplicates. All wells with exception of unstimulated controls were activated with 50 μl of concanavalin A (25 μg/ml). Incubations of cells with test compounds lasted for 72 hours at 37° C., in 5% CO2 atmosphere and 100% humidity. At the end of incubation period, the cells were assayed by using the [^3H]-TdR:
Cell cultures were incubated with […] (20 μl of stock solution 500 μCi/ml) per well for 6 hours at 37° C. and 5% CO2. The automated cell harvester was used to lyse cells in water and adsorb the DNA onto glass-fiber filters in the format of microtiter plate. The DNA incorporated [^3H]-TdR was retained on the filter while unincorporated material passes through. The filters were dried at room temperature overnight, sealed into a sample bag with 10-12 ml of scintillant. The amount of [^3H]-TdR present in each filter (in cpm) was determined by scintillation counting in a Betaplate liquid scintillation counter. The effective dose of immunosuppressant (ED) was calculated using the following equation: ED=(cpmdrug exposed well/mean cpmcontrol wells)×100%. The EDs50 value, the drug concentration inhibiting proliferation of 50% of lymphocytes, was calculated from the obtained dose response curves.
To evaluate immunosuppressive activity of substituted adenines, their ability to inhibit polyclonal mitogen induced proliferation of normal human lymphocytes was analyzed (Table 8). […] Effective immunosuppressive dose of new derivatives under in vitro conditions was close to 1-20 μM.

[5] = Table 5, CDC2 activity in cell free system

T1 sequence (P06493 whole entry, species assumed): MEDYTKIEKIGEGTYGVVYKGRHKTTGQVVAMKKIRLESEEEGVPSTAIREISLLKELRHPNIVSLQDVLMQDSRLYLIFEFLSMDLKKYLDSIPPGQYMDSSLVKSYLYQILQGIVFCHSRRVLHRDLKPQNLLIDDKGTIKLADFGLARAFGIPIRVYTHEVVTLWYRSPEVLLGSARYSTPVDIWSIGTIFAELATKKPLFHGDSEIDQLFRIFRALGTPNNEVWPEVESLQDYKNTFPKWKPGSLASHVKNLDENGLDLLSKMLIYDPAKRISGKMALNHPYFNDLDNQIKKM
T1 sequence (P14635 whole entry partner, species assumed): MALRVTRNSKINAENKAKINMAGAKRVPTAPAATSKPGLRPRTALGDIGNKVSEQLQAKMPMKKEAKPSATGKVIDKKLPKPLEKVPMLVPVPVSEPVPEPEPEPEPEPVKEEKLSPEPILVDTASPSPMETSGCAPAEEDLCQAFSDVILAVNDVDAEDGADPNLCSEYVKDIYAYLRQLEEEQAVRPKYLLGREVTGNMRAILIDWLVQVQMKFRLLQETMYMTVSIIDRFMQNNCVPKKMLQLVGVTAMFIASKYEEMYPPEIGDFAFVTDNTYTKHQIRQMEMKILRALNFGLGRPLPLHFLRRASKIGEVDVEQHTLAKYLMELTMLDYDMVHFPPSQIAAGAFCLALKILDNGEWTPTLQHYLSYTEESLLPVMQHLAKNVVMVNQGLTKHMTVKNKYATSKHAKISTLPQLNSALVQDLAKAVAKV

CC(O)CNc1nc(NC(CO)c2ccccc2)c2ncn(C(C)C)c2n1 (stereo not shown)
IC50 (CDC2; Table 3): 0.6 µM

CCCCCCNc1nc(NCc2ccc(O)c(O)c2)c2ncn(C(C)C)c2n1
IC50 (B16 melanoma): 21 µM
IC50 [1]: 22 µM

CC(C)n1cnc2c(NC(CO)c3ccccc3)nc(NCC(O)CO)nc21 [P26, 2-(2,3-dihydroxypropylamino)-6-[(R,S)-(1-phenyl-2-hydroxyethyl)amino]-9-isopropylpurine]
IC50 ([2]; Homo sapiens, KG-1, 96 h): 20 ± 1 µM
IC50 (CDC2; [5]): > 100 µM
IC50 ([3]; Homo sapiens, MOLT-3): 23.7 ± 3.4 µM
CC50 [4]: 20 ± 1 µM

CC(C)n1cnc2c(N(C)CCc3ccc(O)c(O)c3)nc(NC[C@H](C)O)nc21
EC50 (normal human lymphocytes): 8 µM
IC50 (B16 melanoma): 40 µM
IC50 [1]: 43 µM

CC(C)n1cnc2c(NCc3ccc(O)c(O)c3)nc(NCCO)nc21
IC50 (B16 melanoma): 32 µM
IC50 [1]: 35 µM

CCCCCCNc1nc(NC(C)c2ccc(O)c(O)c2)c2ncn(C(C)C)c2n1 (stereo not shown) [P17]
IC50 ([2]; 96 hours of culture): 35.3 ± 5.7 µM
IC50 (CDC2; [5]): 1 µM
IC50 [3]: 24 ± 6.2 µM
IC50 [4]: 18 ± 2.8 µM

CC(C)n1cnc2c(NCc3ccc(O)c(O)c3)nc(NC[C@H](C)O)nc21
IC50 (B16 melanoma): 10 µM
IC50 [1]: 12 µM

CC(C)n1cnc2c(N(C)CCc3ccc(O)c(O)c3)nc(NC[C@@H](C)O)nc21
EC50 (normal human lymphocytes): 7 µM
IC50 (B16 melanoma): 14 µM
IC50 [1]: 13 µM

Cn1cnc2c(NC(CO)c3ccccc3)nc(N3CCOCC3)nc21 (stereo not shown) [P21, 2-(morpholino)-6-(1-phenyl-2-hydroxyethylamino)-9-methylpurine]
IC50 ([2]; Homo sapiens, KG-1, 96 h): 48 ± 1.5 µM
IC50 (CDC2; [5]): 6.5 µM
IC50 ([3]; Homo sapiens, MOLT-3): 50 ± 1.3 µM
CC50 [4]: 40 ± 7.7 µM

CC(C)n1cnc2c(NC(CO)c3ccccc3)nc(NC[C@H](C)O)nc21 (stereo partly shown)
EC50 (normal human lymphocytes): 27 µM
IC50 (B16 melanoma): 5.6 µM
IC50 [1]: 8 µM

CC[C@@H](CO)Nc1nc(N(C)CCc2ccc(O)c(O)c2)c2ncn(C(C)C)c2n1
EC50 (normal human lymphocytes): 1.8 µM
IC50 (B16 melanoma): 34 µM
IC50 [1]: 36 µM

CC[C@H](CO)Nc1nc(NCc2ccc(O)cc2)c2ncn(C(C)C)c2n1 [P19]
IC50 ([2]; 96 hours of culture): 11 ± 1.3 µM
IC50 [3]: 15 ± 2 µM
IC50 [4]: 6 µM

CC(Nc1nc(NCCCO)nc2c1ncn2C(C)C)c1ccc(O)c(O)c1 (stereo not shown) [P20]
IC50 [4]: 35 ± 7.3 µM

CC(C)n1cnc2c(N(C)CCc3ccc(O)c(O)c3)nc(NCCO)nc21
EC50 (normal human lymphocytes): 4 µM
IC50 (B16 melanoma): 26 µM
IC50 [1]: 27 µM

CC(C)n1cnc2c(NCc3ccc(O)c(O)c3)nc(NC[C@@H](C)O)nc21
IC50 (B16 melanoma): 41 µM
IC50 [1]: 35 µM

CC(C)n1cnc2c(NC(CO)c3ccccc3)nc(CCCCCC#N)nc21 (racemic) [P24, 2-(5-cyanopentyl)-6-[(R,S)-(1-phenyl-2-hydroxyethyl)amino]-9-isopropylpurine]
IC50 ([2]; 96 hours of culture): 42 ± 4.8 µM
IC50 (CDC2; [5]): 6.3 µM
IC50 [3]: 42.5 ± 6 µM
IC50 [4]: 33 ± 4.4 µM

CC(C)n1cnc2c(NC(CO)c3ccccc3)nc(SCCO)nc21 (stereo not shown) [P22, 2-(2-hydroxyethylthio)-6-(1-phenyl-2-hydroxyethylamino)-9-isopropylpurine]
IC50 ([2]; Homo sapiens, KG-1, 96 h): 13 ± 1.4 µM
IC50 (CDC2; [5]): 3.8 µM
IC50 ([3]; Homo sapiens, MOLT-3): 17 ± 1.7 µM
CC50 [4]: 11 ± 1.5 µM

CC(C)n1cnc2c(SCc3ccccc3)nc(NCCCO)nc21 [P25, 2-(3-hydroxypropylamino)-6-benzylthio-9-isopropylpurine]
IC50 ([2]; Homo sapiens, KG-1, 96 h): 42 ± 5 µM
IC50 (CDC2; [5]): > 100 µM
IC50 ([3]; Homo sapiens, MOLT-3): 19 ± 2 µM
CC50 [4]: 18 ± 1.6 µM

CC[C@@H](CO)Nc1nc(NC(CO)c2ccccc2)c2ncn(C(C)C)c2n1 (stereo partly shown)
EC50 (normal human lymphocytes): 14 µM
IC50 (B16 melanoma): 24 µM
IC50 [1]: 20 µM

CC[C@@H](CO)Nc1nc(NCc2ccc(O)c(O)c2)c2ncn(C(C)C)c2n1
IC50 (B16 melanoma): 53 µM
IC50 [1]: 51 µM

CC(Nc1nc(NCCCO)nc2c1ncn2C(C)C)c1ccc(O)c(O)c1 (stereo not shown) [P18]
IC50 ([2]; 96 hours of culture): 18.7 ± 0.3 µM
IC50 (CDC2; [5]): 2.6 µM
IC50 [3]: 23 ± 2.8 µM
IC50 [4]: 14.9 ± 2.9 µM
